The text below walks through data of patent publication US20240398829A1, “A COBALT-[…] AMINO ACID COMPLEX AND ITS USE FOR TREATING CANCER” (AMELIO BIOTECH CO., LTD., priority 2021, published 2024).

“And” between values parts separate entries of the source, which are not always exact repeats. Equal entries are not always repeated.

For series [1], the system named is zebrafish liver. Put plainly: Hepatoxicity assay in Tg(fabp10a:EGFP-mCherry) embryos. Particulars: 10 μM, embryos treated from 3 dpf.
Experimental: About 3 dpf, 50 embryos were distributed into 10 ml chemical solution/well (chemical/E3 solution) in 6-well plates until 5 dpf and new chemical solution was replaced every day. At 5 dpf, embryos were anesthetized with tricaine (0.016%) and the images of 8 to 10 embryos randomly per well were taken by ZEISS AxioCam MRc. There are three different images which one with auto exposure-time for the clearest view, one with fixed exposure-time to capture RFP (red fluorescent protein) intensity below saturation for intensity measurement and comparison, and the last one with sufficient exposure-time to show the whole liver region for size measurement. Image J software was then used to quantify intensity of RFP and liver size. Average RFP intensity in the liver was calculated and compared within the same group of lateral view fry under the same magnification and fixed exposure-time.
Images were analyzed by Image J software.
Series [2] relates to U87. Put plainly: Cell proliferation assay II (MTS), U87. It counts as cell-based, human. To be noted: U87, 72 h, mean ± SD. The protocol: (§1) Human lung cancer cell line NCI-H226 was purchased from the American type culture collection (CRL-5826). NCI-H226 was grown in RPMI supplemented with 10% FBS in a humidified atmosphere containing 5% CO2 at 37° C. Human melanoma cell line A375, human pharynx squamous cell carcinoma FaDu, human cervical epithelioid carcinoma HeLa and human chronic myelogenous leukemia K-562 were purchased from Bioresource Collection and Research Center (BCRC), Hsinchu 300, Taiwan. A375 cells were grown in DMEM supplemented with 10% FBS in a humidified atmosphere 5% CO2 at 37° C. FaDu cells were grown in DMEM supplemented with 10% FBS in a humidified atmosphere 5% CO2 at 37° C. HeLa cell were grown in DMEM supplemented with 10% FBS in a humidified atmosphere 5% CO2 at 37° C. […]
(§2) MTS/PMS solution was freshly prepared and added (20 μl per well) into each well of 96-well cultured plate. The assay plate was incubated for 3 hours at 37° C., 5% CO2, under humidified atmosphere, and measured the absorbance at 490 nm using Multiskan™ GO Microplate Spectrophotometer (Thermo Fisher Scientific).
(§3) Corrected absorbance values were obtained by subtracting the average 490 nm absorbance of the negative control wells (medium only, no cell, as background control) from all other absorbance values. Percentage inhibition of cell growth for compound treatment was calculated using this formula: […]

Series [3] has as its system ccne1, cdk1, cdk2, myca, mycb, ccnd1. Put plainly: qPCR of cell proliferation markers and beta-catenin downstream target genes in tert transgenic zebrafish. Type of series: in vivo, zebrafish (Danio rerio). Particulars: 0.5×(50 μM), 15 dpf, vs untreated. The protocol: (§4) 50 zebrafish larva were placed in a fish tank with 800 ml of system water, the water were refreshed every day at 4 pm. From day 5 to day 15, AB(WT) and tert transgenic zebrafish were fed with normal larva food, plus 20 ml of Paramecium, and there must be 2 hours between meals, four meals a day. The last meal must be fed after 1 hour before the water changed. […] The fish were fasting for one days before collecting the samples for RNA extraction and hematoxylin-eosin (H&E) staining.
Total RNA was isolated by NucleoSpin® RNA kit ([…]-NAGEL, USA). […]
The resulting first-strand cDNA was used as a template for […] PCR in triplicate by using the SYBR Green Q-PCR Master Mix Kit (Applied Biosystems) using an ABI PRISM 7900 System. After normalization to internal control actin, the expression ratio between the experimental and control groups was calculated using the comparative Ct method. The relative expression ratio (fold change) was calculated based on ΔΔCt, ΔΔCt=(Cttarget−Ctactin)treatment−(Cttarget−Ctactin)control, and fold change=2^−ΔΔ^Ct. […] At least three independent samples were used for Q-PCR, and the standard error was calculated and incorporated into the presented data as […]±standard error. Differences among variables were assessed by a two-tailed Student's t test. […]
(In general: Real-time PCR tracks product formation cycle by cycle.)

Series [4] deals with NCI-H226. Put plainly: Cell proliferation assay II (MTS), NCI-H226. Type of series: cell-based, human. To be noted: NCI-H226, 72 h, mean ± SD. The protocol: as §1, §2, §3
In series [5] the test system is A375 cells. Put plainly: Cell proliferation assay I (PrestoBlue), A375. Type of series: cell-based, human. Particulars: 72 h; for A375 cell survival (%): vs control without drug. The protocol:
(§5) U-87 MG cells (a human primary glioblastoma cell line) were cultured in MEM medium (Gibco, New York, NY, USA). A375 cells (a human melanoma cell line) and Huh7 cells (a human hepatocellular carcinoma (HCC) cell line) were cultured in DMEM medium (HyClone, Logan, UT, USA). The culture media were supplemented with 10% heat-inactivated fetal bovine serum (FBS), 1% penicillin/streptomycin and 1% […] (HyClone, Logan, UT, USA). Cells were seeded in 96-well plates at a density of 2000 cells/well. Then, cells were transferred to 37° C. incubator. […] At the end of incubation, the PrestoBlue™ Cell Viability Reagent (Invitrogen, Eugene, OR, USA) was distributed to cells. The plates were incubated for 90 min at 37° C. in a humidified, 5% CO2 atmosphere and the fluorescence was then recorded at Ex/Em: 560 nm/590 nm. Triplicate experiments were performed.

Series [6] has as its system Hep3B hepatoma cells. Put plainly: Xenotransplantation assay of cell proliferation in zebrafish embryos. It counts as in vivo, human. Particulars: two days, zebrafish embryo xenotransplant.
The subject of series [7] is K-562. Put plainly: Cell proliferation assay II (MTS), K-562. To be noted: K-562, 72 h, mean ± SD. It counts as cell-based, human. As to the method: as §1, §2, §3
Series [8] deals with tert transgenic zebrafish. Put plainly: H&E staining of liver cells of tert transgenic zebrafish. Type of series: in vivo, zebrafish (Danio rerio). To be noted: 15 dpf. As to the method: as §4
After 1 month of RO injection, the fish was sacrificed, and the liver was taken out and divided into two parts for RNA isolation and paraffin section. The liver tissues were frozen in liquid nitrogen immediately after sectioning and stored at −80° C. for later RNA isolation. For histochemistry analysis, liver tissues were fixed in a 10% formalin solution (Sigma-Aldrich Inc., St. Louis, MO, USA). The fixed tissue was embedded in paraffin, and sectioned at 5-μm thickness mounted on poly-L-lysine coated slides, and the sections were stained with hematoxylin and eosin (H&E stain), which this part was performed by the Pathology core facility.
H&E staining is mainly to observe the states of mitotic figures, […] cells, and macronucleated cells that represent hepatocyte undergoes carcinogenesis.

The test system of series [9] is A375. Put plainly: Cell proliferation assay II (MTS), A375. Type of series: cell-based, human. To be noted: A375, 72 h, mean ± SD. As to the method: as §1, §2, §3
Series [10] deals with FaDu. Put plainly: Cell proliferation assay II (MTS), FaDu. Type of series: cell-based, human. Particulars: 72 h, mean ± SD. The protocol: as §1, §2, §3
In series [11] the test system is Huh7 cells. Put plainly: Cell proliferation assay I (PrestoBlue), Huh7. It counts as cell-based, human. To be noted: 72 h; for Huh7 cell survival (%): vs control without drug. The protocol: as §5
Series [12] deals with U-87 MG cells. Put plainly: Cell proliferation assay I (PrestoBlue), U-87 MG. Type of series: cell-based, human. To be noted: 72 h; for U-87 MG cell survival (%): vs control without drug. The protocol: as §5
The test system of series [13] is HeLa. Put plainly: Cell proliferation assay II (MTS), HeLa. It counts as cell-based, human. Particulars: 72 h, mean ± SD. The protocol:
as §1, §2, §3

On to `CNC(=O)c1cc(Oc2ccc(NC(=O)Nc3ccc(Cl)c(C(F)(F)F)c3)cc2)ccn1` [Sorafenib], for which the “liver size vs DMSO treated control” value in series [1] is “significantly reduce liver size”.
In the case of “cobalt-containing glutamic acid (COGA) complex”, the IC50 (commonly the concentration that gives 50% inhibition) is 42 µM in series [2]; 45 µM and 44.5 µM in series [4]; 0.0687 ± 0.0158 µM in series [5] (A375 cells); 54.5 ± 4.4 µM in series [7]; 102 ± 2 µM in series [9]; 74.6 ± 63 µM in series [10]. Also, the IC50 in [11] (Huh7 cells) is 0.287 ± 0.0618 µM; in [12] (U-87 MG cells) it was > 10 µM; in series [13] it was 73.7 ± 19 µM. Further, the “expression of cell proliferation markers (ccne1, cdk1, cdk2) and beta-catenin downstream target genes (myca, mycb, ccnd1)” value in [3] is reported as “significantly reduced”. The “A375 cell survival (%)” value in series [5] (5 nM) was 110% and 104% and 105%; in series [5] (14 nM) it was 89% and 87% and 85%; in series [5] (41 nM), 74% and 71% and 68%; in series [5] (123 nM) it was 72% and 69% and 67%; in series [5] (370 nM), 69% and 68% and 62%; in [5] (1111 nM) it was 70% and 71% and 67%. The “A375 cell survival (%)” value in series [5] (3333 nM) was 77% and 76% and 72%; in series [5] (10000 nM) it was 89% and 88% and 84%. Further, the “hepatoma cell proliferation compared to the DMSO treatment” value in series [6] (0.5×(50 μM)) and in series [6] (1×(100 μM)) was “significantly reduced” in each case. Besides, the “number of mitotic figures, trinucleated cells, and macronucleated cells” value in series [8] is reported as “significantly reduced”. Further, the “Huh7 cell survival (%)” value is 102% and 107% and 100% in series [11] (5 nM); 88% and 92% and 84% in series [11] (14 nM); 78% and 80% and 72% in series [11] (41 nM); 73% and 77% and 71% in series [11] (123 nM); 74% and 75% and 69% in [11] (370 nM); 82% and 79% and 73% in series [11] (1111 nM). The “Huh7 cell survival (%)” value was 80% and 82% and 75% in [11] (3333 nM); 89% and 92% and 82% in [11] (10000 nM). Further, the “U-87 MG cell survival (%)” value in series [12] (5 nM) is 100% and 105% and 103%; in series [12] (14 nM), 95% and 97%; in series [12] (41 nM) it was 89% and 93%; in series [12] (123 nM) it was 89%; in [12] (370 nM) it was 87% and 91% and 85%; in series [12] (1111 nM), 87% and 90% and 84%. Besides, the “U-87 MG cell survival (%)” value in [12] (3333 nM) is 87% and 89% and 84%; in series [12] (10000 nM), 89% and 90% and 88%.
